Measurements from patent US9636418B2 (priority 2013, dated 2017).
Values joined by “and” are separate entries in the source; they are usually repeats but may differ in a detail not shown here. Equal values may be shown once. “Also recorded” adds a separate entry of the source. Read-outs that look alike come from different tables or passages of the source.

Legend:
[1] = biological target: T1, hNav1.5 (Homo sapiens, UniProt Q14524); test: cell-based; settings: PatchXpress; * = at high concentrations compound would wash off slowly or not at all; read-out: PX hNav1.5 Tonic IC50
[2] = rat plasma, 37° C., incubation time 0 hr (normalisation point)
[3] = biological target: T2, hNav1.7 (Homo sapiens, UniProt Q15858); test: cell-based; settings: IonWorks Quattro; read-out: IC50 Nav1.7
[4] = in vitro; settings: rat, plasma
[5] = mouse plasma, 37° C., incubation time 0 hr (normalisation point)
[6] = in vitro; settings: mouse, plasma
[7] = biological target: T3, hNav1.4 (Homo sapiens, UniProt P35499); test: cell-based; settings: for IC50: IonWorks Quattro, read-out: IC50 Nav1.4
[8] = biological target: T4, hNav1.3 (Homo sapiens, UniProt Q9NY46); test: cell-based; settings: IonWorks Quattro; read-out: IC50 Nav1.3
[9] = biological target: T3, hNav1.4; test: cell-based; settings: PatchXpress; * = at high concentrations compound would wash off slowly or not at all; read-out: PX hNav1.4 Tonic IC50
[10] = biological target: T2, hNav1.7; test: cell-based; assay type: cell-based; settings: PatchXpress; * = at high concentrations compound would wash off slowly or not at all; read-out: PX hNav1.7 Tonic IC50
[11] = system: TTX-sensitive Nav channels in mouse DRG neuron; assay type: cell-based
[12] = biological target: T2, hNav1.7; test: cell-based; assay type: cell-based
[13] = biological target: T1, hNav1.5; test: cell-based; settings: IonWorks Quattro; read-out: IC50 Nav1.5
[14] = biological target: T4, hNav1.3; assay type: cell-based
[15] = system: TTX-resistant Nav channels in mouse DRG neuron; assay type: cell-based
[16] = biological target: hNav1.8 (Homo sapiens, UniProt Q9Y5Y9); test: cell-based; assay type: cell-based
[17] = biological target: T1, hNav1.5; test: cell-based; assay type: cell-based
[18] = biological target: T3, hNav1.4; assay type: cell-based
[19] = system: central neuronal sodium channels in rat hippocampus neurons; settings: cited from earlier work
[20] = in vivo; cited from earlier work
[21] = system: mice; settings: mouse, in vivo; cited from earlier work

T1 sequence (Q14524 whole entry): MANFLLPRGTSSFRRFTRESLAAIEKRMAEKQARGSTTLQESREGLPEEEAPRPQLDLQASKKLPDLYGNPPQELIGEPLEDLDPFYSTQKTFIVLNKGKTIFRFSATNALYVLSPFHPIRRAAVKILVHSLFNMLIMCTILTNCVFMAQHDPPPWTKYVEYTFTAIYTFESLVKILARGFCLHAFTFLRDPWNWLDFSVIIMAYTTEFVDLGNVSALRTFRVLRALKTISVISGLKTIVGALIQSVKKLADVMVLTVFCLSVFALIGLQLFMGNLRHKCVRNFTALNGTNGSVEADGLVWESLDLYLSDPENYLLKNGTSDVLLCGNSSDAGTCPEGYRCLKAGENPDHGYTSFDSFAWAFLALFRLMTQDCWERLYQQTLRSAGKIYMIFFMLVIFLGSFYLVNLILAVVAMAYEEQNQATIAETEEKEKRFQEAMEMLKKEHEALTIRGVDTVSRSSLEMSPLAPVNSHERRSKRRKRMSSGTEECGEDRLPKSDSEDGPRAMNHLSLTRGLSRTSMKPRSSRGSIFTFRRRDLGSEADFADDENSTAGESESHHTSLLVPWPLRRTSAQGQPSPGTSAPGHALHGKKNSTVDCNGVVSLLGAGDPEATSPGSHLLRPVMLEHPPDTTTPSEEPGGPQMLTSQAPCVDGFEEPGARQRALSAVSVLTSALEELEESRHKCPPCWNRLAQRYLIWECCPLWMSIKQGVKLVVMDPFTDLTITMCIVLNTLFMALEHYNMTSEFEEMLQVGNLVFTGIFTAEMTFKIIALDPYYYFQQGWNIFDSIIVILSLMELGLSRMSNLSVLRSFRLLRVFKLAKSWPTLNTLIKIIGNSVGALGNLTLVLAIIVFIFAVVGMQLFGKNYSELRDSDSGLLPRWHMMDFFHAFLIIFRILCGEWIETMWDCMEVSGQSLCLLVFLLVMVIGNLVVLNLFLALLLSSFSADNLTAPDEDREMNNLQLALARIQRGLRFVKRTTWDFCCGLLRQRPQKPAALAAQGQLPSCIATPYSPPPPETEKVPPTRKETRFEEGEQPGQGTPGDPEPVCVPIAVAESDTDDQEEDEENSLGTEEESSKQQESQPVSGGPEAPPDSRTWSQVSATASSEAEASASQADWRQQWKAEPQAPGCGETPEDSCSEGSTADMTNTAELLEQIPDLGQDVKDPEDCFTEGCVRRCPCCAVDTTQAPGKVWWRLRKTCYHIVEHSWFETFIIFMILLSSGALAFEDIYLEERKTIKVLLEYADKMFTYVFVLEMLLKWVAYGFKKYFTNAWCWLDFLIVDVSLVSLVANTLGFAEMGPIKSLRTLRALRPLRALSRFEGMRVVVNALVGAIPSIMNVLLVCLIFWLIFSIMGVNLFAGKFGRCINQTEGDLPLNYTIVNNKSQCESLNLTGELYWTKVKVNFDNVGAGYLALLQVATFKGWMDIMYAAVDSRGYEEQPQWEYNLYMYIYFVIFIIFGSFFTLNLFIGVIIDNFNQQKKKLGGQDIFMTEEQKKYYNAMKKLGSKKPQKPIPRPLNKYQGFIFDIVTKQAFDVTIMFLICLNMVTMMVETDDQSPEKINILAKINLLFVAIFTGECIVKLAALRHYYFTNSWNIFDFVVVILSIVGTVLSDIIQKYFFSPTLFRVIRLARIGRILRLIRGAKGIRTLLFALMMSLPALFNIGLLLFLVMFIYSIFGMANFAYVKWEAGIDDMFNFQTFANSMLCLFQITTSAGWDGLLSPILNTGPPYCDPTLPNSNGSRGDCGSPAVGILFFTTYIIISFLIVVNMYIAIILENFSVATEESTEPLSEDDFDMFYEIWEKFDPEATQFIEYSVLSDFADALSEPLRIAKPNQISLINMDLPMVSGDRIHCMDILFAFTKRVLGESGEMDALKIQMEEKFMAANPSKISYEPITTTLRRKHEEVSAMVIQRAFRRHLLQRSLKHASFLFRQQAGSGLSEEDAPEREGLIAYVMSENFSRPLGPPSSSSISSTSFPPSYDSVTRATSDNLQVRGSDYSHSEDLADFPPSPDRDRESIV
T4 sequence (Q9NY46 whole entry): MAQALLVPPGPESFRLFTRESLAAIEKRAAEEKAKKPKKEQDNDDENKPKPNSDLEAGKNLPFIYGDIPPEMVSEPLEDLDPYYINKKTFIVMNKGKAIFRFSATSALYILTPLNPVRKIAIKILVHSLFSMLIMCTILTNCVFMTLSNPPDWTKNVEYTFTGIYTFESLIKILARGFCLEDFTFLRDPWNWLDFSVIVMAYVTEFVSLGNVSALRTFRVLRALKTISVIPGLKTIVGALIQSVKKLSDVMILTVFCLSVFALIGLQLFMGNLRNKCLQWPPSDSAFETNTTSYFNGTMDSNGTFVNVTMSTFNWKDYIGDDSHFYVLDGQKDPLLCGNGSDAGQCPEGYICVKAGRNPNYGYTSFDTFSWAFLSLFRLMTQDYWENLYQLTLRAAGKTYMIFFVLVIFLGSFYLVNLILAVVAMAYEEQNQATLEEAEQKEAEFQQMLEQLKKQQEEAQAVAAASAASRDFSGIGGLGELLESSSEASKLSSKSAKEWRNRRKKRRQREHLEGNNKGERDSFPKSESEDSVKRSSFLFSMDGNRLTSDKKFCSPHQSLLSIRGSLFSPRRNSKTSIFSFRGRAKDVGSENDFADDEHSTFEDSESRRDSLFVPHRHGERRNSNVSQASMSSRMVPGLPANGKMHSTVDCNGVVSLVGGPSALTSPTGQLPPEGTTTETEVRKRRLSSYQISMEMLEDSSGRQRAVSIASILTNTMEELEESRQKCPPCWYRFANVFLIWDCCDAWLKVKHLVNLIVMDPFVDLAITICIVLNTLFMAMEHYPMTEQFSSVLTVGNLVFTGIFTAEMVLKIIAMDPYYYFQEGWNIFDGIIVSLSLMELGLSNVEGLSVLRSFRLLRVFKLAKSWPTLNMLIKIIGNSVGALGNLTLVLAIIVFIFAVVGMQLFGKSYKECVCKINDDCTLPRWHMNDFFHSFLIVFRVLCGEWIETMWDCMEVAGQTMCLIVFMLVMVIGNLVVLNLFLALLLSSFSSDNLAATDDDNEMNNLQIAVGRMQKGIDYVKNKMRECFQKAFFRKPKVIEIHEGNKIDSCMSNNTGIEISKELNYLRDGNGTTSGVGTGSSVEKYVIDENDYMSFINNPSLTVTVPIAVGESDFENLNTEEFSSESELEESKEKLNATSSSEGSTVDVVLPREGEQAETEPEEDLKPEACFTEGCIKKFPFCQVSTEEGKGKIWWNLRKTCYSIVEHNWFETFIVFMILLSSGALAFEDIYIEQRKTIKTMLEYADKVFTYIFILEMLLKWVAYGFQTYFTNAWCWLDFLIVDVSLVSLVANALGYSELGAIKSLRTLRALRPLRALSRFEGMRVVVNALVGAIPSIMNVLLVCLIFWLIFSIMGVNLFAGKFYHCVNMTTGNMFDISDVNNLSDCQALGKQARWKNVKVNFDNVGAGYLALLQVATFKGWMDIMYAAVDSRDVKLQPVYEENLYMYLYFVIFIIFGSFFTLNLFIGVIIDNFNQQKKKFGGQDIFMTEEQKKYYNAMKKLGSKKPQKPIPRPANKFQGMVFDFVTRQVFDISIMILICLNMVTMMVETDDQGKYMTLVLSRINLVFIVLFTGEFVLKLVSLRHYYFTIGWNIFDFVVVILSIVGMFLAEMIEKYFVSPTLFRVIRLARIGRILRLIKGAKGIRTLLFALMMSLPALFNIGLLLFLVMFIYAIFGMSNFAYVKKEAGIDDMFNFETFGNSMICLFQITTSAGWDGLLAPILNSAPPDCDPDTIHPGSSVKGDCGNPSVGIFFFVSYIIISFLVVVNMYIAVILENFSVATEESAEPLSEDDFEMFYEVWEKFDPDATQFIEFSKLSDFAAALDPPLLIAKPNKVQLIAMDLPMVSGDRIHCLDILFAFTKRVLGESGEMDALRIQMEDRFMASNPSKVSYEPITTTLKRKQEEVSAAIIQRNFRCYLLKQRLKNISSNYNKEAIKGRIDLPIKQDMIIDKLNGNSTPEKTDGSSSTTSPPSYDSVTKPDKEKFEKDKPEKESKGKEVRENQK

Compound | IC50 [1] | % Peptide Remaining [2] [%] | IC50 [3] | remaining at 2 h [4] [%] | remaining at 4 h [4] [%] | remaining at 6 h [4] [%] | remaining at 8 h [4] [%] | remaining at 24 h [4] [%] | % Peptide Remaining [5] [%] | remaining at 2 h [6] [%] | remaining at 4 h [6] [%] | remaining at 6 h [6] [%] | remaining at 8 h [6] [%] | remaining at 24 h [6] [%] | IC50 [7] [nM] | IC50 [8] [nM] | IC50 [9] | IC50 [10] | IC50 [13] | further results
CC[C@H](C)[C@H](NC(=O)[C@H](CCCCN)NC(=O)[C@H](CCCNC(=N)N)NC(=O)[C@@H]1CSSC[C@@H]2NC(=O)[C@H](C)NC(=O)[C@H](CCCNC(=N)N)NC(=O)[C@H](CCCCN)NC(=O)[C@H](CO)NC(=O)[C@H](CC(=O)O)NC(=O)[C@@H]3CSSC[C@H](NC(=O)[C@H](CCC(=O)O)NC(=O)[C@H](CC(C)C)NC(=O)CNC(=O)[C@H](CCC(=O)O)NC(=O)[C@H](CSSC[C@H](NC(=O)[C@@H](N)Cc4ccc(O)cc4)C(=O)N[C@@H](CCC(N)=O)C(=O)N[C@@H](CCCCN)C(=O)N[C@@H](Cc4c[nH]c5ccccc45)C(=O)N[C@@H](CCSC)C(=O)N[C@@H](Cc4c[nH]c5ccccc45)C(=O)N[C@@H]([C@@H](C)O)C(=O)N3)NC2=O)C(=O)N[C@@H](CCCCN)C(=O)N[C@@H](CC(C)C)C(=O)N[C@@H](Cc2c[nH]c3ccccc23)C(=O)N1)C(=O)N[C@@H](Cc1c[nH]c2ccccc12)C(N)=O [compound 112] | 3420 nM and 3950 nM and 4410 nM and 1320 nM and 1620 nM | 100 | 30 nM and 17 nM | 95 | 93 | 92 | 89 | 70 | 100 | 88 | 82 | 85 | 85 | 77 | > 5000 | 3620 | 1130 nM and 824 nM and 1050 nM and 1350 nM and 2370 nM | 2.8 nM and 0.67 nM and 1.3 nM and 0.5 nM and 1.41 nM and 2.15 nM and 1.82 nM and 2.12 nM | 6900 nM | 1.x/1.7, partially inactivated [11]: 1213; 1.x/1.7, partially inactivated ([11]; mTTX-S (fresh DRG) vs hNav1.7, partially inactivated): 917; IC50 ([12]; WCPC, hNav1.7, partially inactivated, n=2): 0.23 nM; 1.x/1.7, partially inactivated ([12]; hNav1.7 vs hNav1.7, partially inactivated): 1
CC[C@H](C)[C@H](NC(=O)[C@@H](NC(=O)[C@H](CCCCN)NC(=O)[C@H](CCCNC(=N)N)NC(=O)[C@@H]1CSSC[C@@H]2NC(=O)[C@H](C)NC(=O)[C@H](CCCNC(=N)N)NC(=O)[C@H](CCCCN)NC(=O)[C@H](CO)NC(=O)[C@H](CC(=O)O)NC(=O)[C@@H]3CSSC[C@H](NC(=O)[C@H](CCCNC(=N)N)NC(=O)[C@H](CC(C)C)NC(=O)CNC(=O)[C@H](CCC(=O)O)NC(=O)[C@H](CSSC[C@H](NC(=O)[C@@H](N)Cc4ccc(O)cc4)C(=O)N[C@@H](CCC(N)=O)C(=O)N[C@@H](CCCCN)C(=O)N[C@@H](Cc4c[nH]c5ccccc45)C(=O)N[C@@H](CCSC)C(=O)N[C@@H](Cc4c[nH]c5ccccc45)C(=O)N[C@@H]([C@@H](C)O)C(=O)N3)NC2=O)C(=O)N[C@@H](CCCCN)C(=O)N[C@@H](CC(C)C)C(=O)N[C@@H](Cc2c[nH]c3ccccc23)C(=O)N1)[C@@H](C)CC)C(N)=O [SEQ ID NO: 2, JzTx-V(1-29), reference compound] | – | – | – | – | – | – | – | – | – | – | – | – | – | – | – | – | – | – | – | block of hNav1.3 current [14]: completely blocked Nav1.3 current; also recorded: complete inhibition; effect on TTX-resistant Nav current [15]: nominal effect on peak TTX-resistant current but prolonged the level of TTX-resistant current at 40 msec; also recorded: only partial inhibition; inhibition of hNav1.8 current [16]: only partial inhibition; block of hNav1.5 current [17]: blocked most Nav1.5 current; also recorded: nearly complete inhibition; block of TTX-sensitive Nav current [11]: completely blocked TTX-sensitive Nav current; also recorded: blocked nearly all TTX-sensitive Nav current; also recorded: almost complete inhibition; block of hNav1.7 current [12]: blocked all Nav1.7 current; inhibition of hNav1.7 current [12]: complete inhibition; block of hNav1.4 current [18]: completely blocked Nav1.4 current; also recorded: complete inhibition
Huwentoxin-IV [SEQ ID NO: 528] | – | – | – | – | – | – | – | – | – | – | – | – | – | – | – | – | – | – | – | less potent against central neuronal sodium channels [19]: 12 fold
CC[C@H](C)[C@H](NC(=O)[C@H](CO)NC(=O)[C@H](CCCCN)NC(=O)[C@H](CCCNC(=N)N)NC(=O)[C@@H]1CSSC[C@@H]2NC(=O)[C@H](C)NC(=O)[C@H](CCCNC(=N)N)NC(=O)[C@H](CCCCN)NC(=O)[C@H](CO)NC(=O)[C@H](CC(=O)O)NC(=O)[C@@H]3CSSC[C@H](NC(=O)[C@H](CCC(=O)O)NC(=O)[C@H](CC(C)C)NC(=O)CNC(=O)[C@H](CCC(=O)O)NC(=O)[C@H](CSSC[C@H](NC(=O)[C@@H](N)Cc4ccc(O)cc4)C(=O)N[C@@H](CCC(N)=O)C(=O)N[C@@H](CCCCN)C(=O)N[C@@H](Cc4c[nH]c5ccccc45)C(=O)N[C@@H](CCSC)C(=O)N[C@@H](Cc4c[nH]c5ccccc45)C(=O)N[C@@H]([C@@H](C)O)C(=O)N3)NC2=O)C(=O)N[C@@H](CCCCN)C(=O)N[C@@H](CC(C)C)C(=O)N[C@@H](Cc2c[nH]c3ccccc23)C(=O)N1)C(N)=O [compound 138] | > 10000 nM and 14600 nM | 100 | 80 nM and 150 nM | 90 | 81 | 71 | 67 | 59 | 100 | 64 | 61 | 55 | 51 | 50 | > 5000 | > 5000 | 4790 nM and 3580 nM and 2970 nM | 3.3 nM and 2 nM and 0.4 nM | 13900 nM and 9200 nM | Nav1.4/Nav1.7 ([7]; ratio of IonWorks Quattro IC50 values): 62 and 34
YCQKWMWTCDSERKCCEGMVCRLWCKKKLW [SEQ ID NO: 531, ProTx-II] | – | – | – | – | – | – | – | – | – | – | – | – | – | – | – | – | – | – | – | efficacy in mechanical hyperalgesia study [20]: not efficacious
μ-Conotoxin KIIIA [SEQ ID NO: 530] | – | – | – | – | – | – | – | – | – | – | – | – | – | – | – | – | – | – | – | motor impairment [21]: some motor impairment but not paralytic activity
